Legend:
mouse DPP1 enzyme = mouse DPP1 enzyme (Mus musculus (Mouse), UniProt P97821); test: Mouse DPP1 Enzyme IC50 Assay; assay type: biochemical; conditions: active mouse DPP1 enzyme, H-Gly-Arg-AMC substrate, 10 min pre-incubation at 37° C., MES pH 5.5
Protocol: Test articles were applied to active mouse DPP1 enzyme (R&D Systems; Minneapolis, MN) in Assay Buffer (50 mM MES pH 5.5, 50 mM NaCl, 5 mM DTT) in a total reaction volume of 125 μL. 25 μL of compound in Assay Buffer plus 5% DMSO was first added to 50 μL of active mouse DPP1 enzyme at a concentration of 62.5 pg/μL and allowed to pre-incubate for 10 minutes at 37° C. after which 50 μL of 1000 μM H-Gly-Arg-AMC substrate (Bachem; St. Torrance, CA) was added, giving final substrate concentration of 400 µM and a final DMSO concentration of 1%. Substrate cleavage was measured for 90 minutes at 37° C., with fluorescence at Excitation/Emission 350/450 nm measured every 5 minutes. DPP1 concentration was interpolated based on its activity relative to a standard curve of recombinant active mouse DPP1 enzyme. IC50 values for each compound were calculated via the XLFit (IDBS Version 5.3.1.3) Add-On to Microsoft Excel using the four parameter fit equation y=(A+((B−A)/(1+ ((C/x)^D)))), which appears as equation number 205 (4 Parameter Logistic Model or Sigmoidal Dose-Response Model) in XLFit. Default constraints were used for each Parameter. IC50 was defined as the compound concentration at which 50% of enzyme activity was inhibited when compared to the no-compound control.

human DPP1 enzyme = human DPP1 enzyme (Homo sapiens (Human), UniProt P53634); test: Human DPP1 Enzyme IC50 Assay; assay type: biochemical; conditions: recombinant human DPP1 activated with cathepsin L, H-Gly-Arg-AMC substrate, 10 min pre-incubation at 37° C., MES pH 6.0
Protocol: Recombinant human DPP1 enzyme (R&D Systems; Minneapolis, MN) was first proteolytically processed into its mature form using recombinant human cathepsin L (R&D Systems) in a buffer consisting of 20 mM citric acid pH 4.5, 150 mM NaCl, 1 mM EDTA and 10 mM DTT. Test articles were applied to activated human DPP1 enzyme in Assay Buffer (25 mM MES pH 6.0, 50 mM NaCl, 5 mM DTT) in a total reaction volume of 125 μL. 25 μL of compound in Assay Buffer plus 5% DMSO was first added to 50 μL of activated human DPP1 enzyme at a concentration of 1 ng/μL and allowed to pre-incubate for 10 minutes at 37° C. after which 50 μL of 1000 μM H-Gly-Arg-AMC substrate (Bachem; St. Torrance, CA) was added, giving final substrate concentration of 400 µM and a final DMSO concentration of 1%. Substrate cleavage was measured for 90 minutes at 37° C., with fluorescence at Excitation/Emission 350/450 nm measured every 5 minutes. DPP1 concentration was interpolated based on its activity relative to a standard curve of activated human recombinant DPP1 enzyme. IC50 values for each compound were calculated via the XLFit (IDBS Version 5.3.1.3) Add-On to Microsoft Excel using the four parameter fit equation y={A+[(B−A)]/[1+((C/x)^D)]}, which appears as equation number 205 (4 Parameter Logistic Model or Sigmoidal Dose-Response Model) in XLFit. Default constraints were used for each Parameter. IC50 was defined as the compound concentration at which 50% of enzyme activity was inhibited when compared to the no-compound control.

human DPP1 enzyme, sequence (P53634 25-134): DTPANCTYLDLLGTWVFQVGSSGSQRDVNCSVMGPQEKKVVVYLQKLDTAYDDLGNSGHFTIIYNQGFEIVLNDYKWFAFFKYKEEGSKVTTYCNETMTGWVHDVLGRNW
human DPP1 enzyme, sequence (P53634 231-394): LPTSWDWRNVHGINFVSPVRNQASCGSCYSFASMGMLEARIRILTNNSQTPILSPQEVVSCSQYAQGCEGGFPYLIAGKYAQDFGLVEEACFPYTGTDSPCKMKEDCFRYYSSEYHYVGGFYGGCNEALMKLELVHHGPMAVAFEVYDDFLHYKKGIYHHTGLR
human DPP1 enzyme, sequence (P53634 395-463): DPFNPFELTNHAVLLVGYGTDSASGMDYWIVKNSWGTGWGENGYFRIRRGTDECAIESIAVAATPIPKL
mouse DPP1 enzyme, sequence (P97821 25-134): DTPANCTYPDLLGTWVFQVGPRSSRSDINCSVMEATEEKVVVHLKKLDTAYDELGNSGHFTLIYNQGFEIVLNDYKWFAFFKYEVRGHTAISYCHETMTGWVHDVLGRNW
mouse DPP1 enzyme, sequence (P97821 231-393): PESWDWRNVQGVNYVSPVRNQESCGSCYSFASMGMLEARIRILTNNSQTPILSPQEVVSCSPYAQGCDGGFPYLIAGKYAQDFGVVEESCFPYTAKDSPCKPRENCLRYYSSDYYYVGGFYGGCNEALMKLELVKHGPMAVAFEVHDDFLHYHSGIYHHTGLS
mouse DPP1 enzyme, sequence (P97821 394-462): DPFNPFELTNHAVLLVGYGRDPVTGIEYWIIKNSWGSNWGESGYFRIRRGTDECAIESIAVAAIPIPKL

Row | Compound | IC50 (mouse DPP1 enzyme) [nM] | IC50 (human DPP1 enzyme) [nM]
1 | Cn1c(=O)oc2ccc(-c3ccc(C[C@@H](C#N)NC(=O)[C@@H]4CNC[C@@](C)(O)CO4)cc3)cc21 (relative stereo) [Compound 2-A, (2S,6R*)—N-[(1S)-1-cyano-2-[4-(3-methyl-2-oxo-2,3-dihydro-1,3-benzoxazol-5-yl)phenyl]ethyl]-6-hydroxy-6-methyl-1,4-oxazepane-2-carboxamide] | 51.7 | 39.6
2 | CO[C@@]1(C)CNC[C@@H](C(=O)N[C@H](C#N)Cc2ccc(-c3ccc4oc(=O)n(C)c4c3)cc2)OC1 (relative stereo) [Compound 3-A, (2S,6S*)—N-[(1S)-1-cyano-2-[4-(3-methyl-2-oxo-2,3-dihydro-1,3-benzoxazol-5-yl)phenyl]ethyl]-6-methoxy-6-methyl-1,4-oxazepane-2-carboxamide] | 130 | 145
3 | CO[C@]1(C)CNC[C@@H](C(=O)N[C@H](C#N)Cc2ccc(-c3ccc4oc(=O)n(C)c4c3)cc2)OC1 (relative stereo) [Compound 3-B, (2S,6R*)—N-[(1S)-1-cyano-2-[4-(3-methyl-2-oxo-2,3-dihydro-1,3-benzoxazol-5-yl)phenyl]ethyl]-6-methoxy-6-methyl-1,4-oxazepane-2-carboxamide] | 251 | 206

From patent US20250223284A1, “REVERSIBLE DPP1 INHIBITORS AND USES THEREOF” (Insmed Incorporated, priority 2023, published 2025)
